Data from US8987340B2, “Sublimable sustained release delivery system and method of making same” (Oakwood Laboratories, LLC, priority 2005, dated 2015).

Assay: In vivo sublimation (disappearance) of pellets from subcutaneous implant sites
Parameters: species or system Sprague-Dawley male rats
Settings: subcutaneous implant in neck scruff of rats, explanted pellet mass (FIG. 11)
Experimental: The in-vivo disappearance rates of hexamethylethane and adamantane pellets from subcutaneous implant sites in rats were assessed over a 16-week period. Forty six Sprague-Dawley male rats of similar age and weight were assigned into five treatment groups: hexamethylethane pellet implantation (Group H), adamantane pellet implantation (Group A), PLGA (Boehringer Ingelheim Resomer RG 504H) pellet implantation (Group P), a sham group for which surgery was performed without pellet implantation, and a control (no surgery) group. Pellets were individually weighed, and implanted into the neck scruff of rats. Explantation and reweighing of adamantane pellets was performed at 4 and 8 days, and 2, 4, 8, and 10 weeks; hexamethylethane pellets were explanted and weighed at 4 and 24 hours, and 4, 8, and 14 days.

Row | SMILES | in-vivo sublimation / disappearance period of pellets
1 | C1C2CC3CC1CC(C2)C3 [adamantane] | over a period of at least two months
2 | CC(C)(C)C(C)(C)C [hexamethylethane, 2,2,3,3-Tetramethylbutane] | over a period as short as one week
